Measurements published in patent publication US20230365627A1, “MACROCYCLIC PEPTIDE BORONATE IMMUNOMODULATORS” (Bristol-Myers Squibb Company, priority 2020, published 2023).
Read-outs that look alike come from different tables or passages of the source. *1 amine or outer side, *2 acyl side, *3 side chain or, on linkers, in order; H or OH if unused. Where a SMILES comes first, the peptide text is derived from it. Bridges are numbered along the chain shown (N, C = ends). [ ]: non-standard residue; d: D form. X23 = O=C([C@H](CN1Cc2ccc(cc2)B2O[C@@H]([C@H](O)[C@@H](C(O)CO)O2)[C@H](O)C1)N[*:1])[*:2]; X12 = O=C([C@H](CN1Cc2ccccc2B2O[C@@H]([C@H](O)[C@@H](C(O)CO)O2)[C@H](O)C1)N[*:1])[*:2]; X16 = O=C([C@H](CN(Cc1cccc(B(O)O[*:3])c1)Cc1cccc2ccc3ccccc3c12)N[*:1])[*:2]; X13 = O=C([C@H](CCNC[C@@H](O)[C@@H](O)[C@H](O)[C@H](O)C(O)CO)N[*:1])[*:2]; Trp(1-CH2CO) = O=C([C@H](Cc1cn(CC(=O)[*:3])c2ccccc12)N[*:1])[*:2]; X28 = O=C([C@H](CNCc1cc(F)c(F)cc1B(O)O[*:3])N[*:1])[*:2]; Trp(1-CH2COOH) = N[C@@H](Cc1cn(CC(=O)O)c2ccccc12)C(=O)O; X19 = O=C([C@H](CNCc1cccc(B(O)O[*:3])c1F)N[*:1])[*:2]; X3 = O=C([C@H](CNCc1ccc(B(O)O[*:3])cc1F)N[*:1])[*:2]; X32 = O=C([C@H](CNCc1ccc(B(O)O[*:3])cc1)N[*:1])[*:2]; X2 = O=C([C@H](CNCc1ccc(B(O)O[*:3])cn1)N[*:1])[*:2]; X27 = O=C([C@H](CNCc1ccccc1B(O)O[*:3])N[*:1])[*:2]; X10 = COc1ccc(CNC[C@H](N[*:1])C(=O)[*:2])cc1B(O)O; X17 = O=C([C@H](CCNCc1cccc(B(O)O)c1)N[*:1])[*:2]; Hyp = O=C(O)[C@@H]1C[C@@H](O)CN1; NMeNle = CCCC[C@H](NC)C(=O)O; NMeA = CN[C@@H](C)C(=O)O; Dab = NCC[C@H](N)C(=O)O

Biological target: PD-1/PD-L1 (Homo sapiens (Human), UniProt Q9NZQ7)
Sequence (Q9NZQ7 18-239): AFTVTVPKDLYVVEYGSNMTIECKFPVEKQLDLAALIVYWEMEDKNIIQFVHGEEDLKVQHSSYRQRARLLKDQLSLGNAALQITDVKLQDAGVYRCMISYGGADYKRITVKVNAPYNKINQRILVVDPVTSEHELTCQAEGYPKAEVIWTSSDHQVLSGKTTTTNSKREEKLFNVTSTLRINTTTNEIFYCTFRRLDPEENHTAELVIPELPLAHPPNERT
Experiment: PD-1/PD-L1 Homogenous Time-Resolved Fluorescence (HTRF) binding assay
Description: Methods for Testing the Ability of Macrocyclic Peptides to Compete for the Binding of PD-1 to PD-L1 Using Homogenous Time-Resolved Fluorescence (HTRF) Binding Assays
The ability of the compounds of formula (I) to bind to PD-L1 was investigated using a PD-1/PD-L1 Homogenous Time-Resolved Fluorescence (HTRF) binding assay.
Homogenous Time-Resolved Fluorescence (HTRF) Binding Assay
The interaction of PD-1 and PD-L1 can be assessed using soluble, purified preparations of the extracellular domains of the two proteins. The PD-1 and PD-L1 protein extracellular domains were expressed as fusion proteins with detection tags, for PD-1, the tag was the Fc portion of Immunoglobulin (PD-1-Ig) and for PD-L1 it was the 6 histidine motif (PD-L1-His). All binding studies were performed in an HTRF assay buffer consisting of dPBS supplemented with 0.1% […] bovine serum albumin and 0.05% (v/v) Tween-20. For the h/PD-L1-His binding assay, inhibitors were pre-incubated with PD-L1-His (10 nM final) for 15 m in 4 μl of assay buffer, followed by addition of PD-1-Ig (20 nM final) in 1 μl of assay buffer and further incubation for 15 m. HTRF detection was achieved using europium cryptate-labeled anti-Ig (1 nM final) and allophycocyanin (APC) labeled anti-His (20 nM final). Antibodies were diluted in HTRF detection buffer and 5 μl was dispensed on top of the binding reaction. The reaction mixture was allowed to equilibrate for 30 minutes and the resulting signal (665 nm/620 nm ratio) was obtained using an EnVision fluorometer. Additional binding assays were established between the human proteins PD-1-Ig/PD-L2-His (20 & 5 nM, respectively) and CD80-His/PD-L1-Ig (100 & 10 nM, respectively).
Recombinant Proteins: Human PD-1 (25-167) with a C-terminal human Fc domain of immunoglobulin G (Ig) epitope tag [hPD-1 (25-167)-3S-IG] and human PD-L1 (18-239) with a C-terminal His epitope tag [hPD-L1(18-239)-TVMV-His] were expressed in HEK293T cells and purified sequentially by ProteinA affinity chromatography and size exclusion chromatography. Human PD-L2-His and CD80-His was obtained through commercial sources.
Table 1 lists the IC50 values for representative examples of this disclosure measured in the PD-1/PD-L1 Homogenous Time-Resolved Fluorescence (HTRF) binding assay.

[1] = PD-L1-His 10 nM, PD-1-Ig 20 nM, read-out: HTRF IC50

Row | SMILES | IC50 [1] [nM] | IC50 [nM]
1 | CCCC[C@H]1C(=O)N(C)[C@@H](CCCC)C(=O)N[C@@H](CC(C)C)C(=O)N[C@H](C(=O)NCC(N)=O)CSCC(=O)N[C@@H](Cc2ccc(O)cc2)C(=O)N(C)[C@@H](C)C(=O)N[C@@H](CC(N)=O)C(=O)N2CCC[C@H]2C(=O)N[C@H]2CNCc3ccccc3B(O)OC(=O)Cn3cc(c4ccccc43)C[C@H](NC(=O)[C@H](CCN)NC(=O)[C@H](Cc3c[nH]c4ccccc34)NC(=O)[C@@H]3C[C@@H](O)CN3C(=O)[C@H](CC(C)C)NC2=O)C(=O)N1C [Example 1003] ({CH2CO}-Y[NMeA]NP[X27]L[Hyp]W[Dab][Trp(1-CH2CO)][NMeNle][NMeNle]LCG-NH2; ester 5-10; thioether N-14) | 7.8 | 
2 | CCCC[C@H]1C(=O)N(C)[C@@H](CCCC)C(=O)N[C@@H](CC(C)C)C(=O)N[C@H](C(=O)NCC(N)=O)CSCC(=O)N[C@@H](Cc2ccc(O)cc2)C(=O)N(C)[C@@H](C)C(=O)N[C@@H](CC(N)=O)C(=O)N2CCC[C@H]2C(=O)N[C@H]2CNCc3ccc(cc3F)B(O)OC(=O)Cn3cc(c4ccccc43)C[C@H](NC(=O)[C@H](CCN)NC(=O)[C@H](Cc3c[nH]c4ccccc34)NC(=O)[C@@H]3C[C@@H](O)CN3C(=O)[C@H](CC(C)C)NC2=O)C(=O)N1C [Example 1013] ({CH2CO}-Y[NMeA]NP[X3]L[Hyp]W[Dab][Trp(1-CH2CO)][NMeNle][NMeNle]LCG-NH2; ester 5-10; thioether N-14) | 3.7 | 
3 | CCCC[C@H]1C(=O)N(C)[C@@H](CCCC)C(=O)N[C@@H](CC(C)C)C(=O)N[C@H](C(=O)NCC(N)=O)CSCC(=O)N[C@@H](Cc2ccc(O)cc2)C(=O)N(C)[C@@H](C)C(=O)N[C@@H](CC(N)=O)C(=O)N2CCC[C@H]2C(=O)N[C@H]2CNCc3cc(F)c(F)cc3B(O)OC(=O)Cn3cc(c4ccccc43)C[C@H](NC(=O)[C@H](CCN)NC(=O)[C@H](Cc3c[nH]c4ccccc34)NC(=O)[C@@H]3C[C@@H](O)CN3C(=O)[C@H](CC(C)C)NC2=O)C(=O)N1C [Example 1024] ({CH2CO}-Y[NMeA]NP[X28]L[Hyp]W[Dab][Trp(1-CH2CO)][NMeNle][NMeNle]LCG-NH2; ester 5-10; thioether N-14) | 9.4 | 
4 | CCCC[C@H]1C(=O)N(C)[C@@H](CCCC)C(=O)N[C@@H](CC(C)C)C(=O)N[C@H](C(=O)NCC(N)=O)CSCC(=O)N[C@@H](Cc2ccc(O)cc2)C(=O)N(C)[C@@H](C)C(=O)N[C@@H](CC(N)=O)C(=O)N2CCC[C@H]2C(=O)N[C@@H](CN2Cc3ccccc3B3O[C@@H]([C@H](O)[C@@H](C(O)CO)O3)[C@H](O)C2)C(=O)N[C@@H](CC(C)C)C(=O)N2C[C@H](O)C[C@H]2C(=O)N[C@@H](Cc2c[nH]c3ccccc23)C(=O)N[C@@H](CCNC[C@@H](O)[C@@H](O)[C@H](O)[C@H](O)C(O)CO)C(=O)N[C@@H](Cc2cn(CC(=O)O)c3ccccc23)C(=O)N1C (stereo partly drawn) [Example 1038] ({CH2CO}-Y[NMeA]NP[X12]L[Hyp]W[X13][Trp(1-CH2COOH)][NMeNle][NMeNle]LCG-NH2; thioether N-14) |  | 6.8
5 | CCCC[C@H]1C(=O)N(C)[C@@H](CCCC)C(=O)N[C@@H](CC(C)C)C(=O)N[C@H](C(=O)NCC(N)=O)CSCC(=O)N[C@@H](Cc2ccc(O)cc2)C(=O)N(C)[C@@H](C)C(=O)N[C@@H](CC(N)=O)C(=O)N2CCC[C@H]2C(=O)N[C@H]2CNCc3ccc(cc3)B(O)OC(=O)Cn3cc(c4ccccc43)C[C@H](NC(=O)[C@H](CCN)NC(=O)[C@H](Cc3c[nH]c4ccccc34)NC(=O)[C@@H]3C[C@@H](O)CN3C(=O)[C@H](CC(C)C)NC2=O)C(=O)N1C [Example 1002] ({CH2CO}-Y[NMeA]NP[X32]L[Hyp]W[Dab][Trp(1-CH2CO)][NMeNle][NMeNle]LCG-NH2; ester 5-10; thioether N-14) | 3.5 | 
6 | CCCC[C@H]1C(=O)N(C)[C@@H](CCCC)C(=O)N[C@@H](CC(C)C)C(=O)N[C@H](C(=O)NCC(N)=O)CSCC(=O)N[C@H]2Cc3ccc(cc3)OB(O)c3ccc(cc3F)CNCC[C@@H]3NC(=O)[C@H](Cc4c[nH]c5ccccc45)NC(=O)[C@@H]4C[C@@H](O)CN4C(=O)[C@H](CC(C)C)NC(=O)[C@H](CNCc4ccc(c(F)c4)B(O)OC(=O)Cn4cc(c5ccccc54)C[C@H](NC3=O)C(=O)N1C)NC(=O)[C@@H]1CCCN1C(=O)[C@H](CC(N)=O)NC(=O)[C@H](C)N(C)C2=O [Example 1026] | 4 | 
7 | CCCC[C@H]1C(=O)N(C)[C@@H](CCCC)C(=O)N[C@@H](CC(C)C)C(=O)N[C@H](C(=O)NCC(N)=O)CSCC(=O)N[C@@H](Cc2ccc(O)cc2)C(=O)N(C)[C@@H](C)C(=O)N[C@@H](CC(N)=O)C(=O)N2CCC[C@H]2C(=O)N[C@H]2CN(Cc3cccc4ccc5ccccc5c34)Cc3cccc(c3)B(O)OC(=O)Cn3cc(c4ccccc43)C[C@H](NC(=O)[C@H](CCNCc3cccc(B(O)O)c3)NC(=O)[C@H](Cc3c[nH]c4ccccc34)NC(=O)[C@@H]3C[C@@H](O)CN3C(=O)[C@H](CC(C)C)NC2=O)C(=O)N1C [Example 1042] ({CH2CO}-Y[NMeA]NP[X16]L[Hyp]W[X17][Trp(1-CH2CO)][NMeNle][NMeNle]LCG-NH2; ester 5-10; thioether N-14) | 94 | 
8 | CCCC[C@H]1C(=O)N(C)[C@@H](CCCC)C(=O)N[C@@H](CC(C)C)C(=O)N[C@H](C(=O)NCC(N)=O)CSCC(=O)N[C@@H](Cc2ccc(O)cc2)C(=O)N(C)[C@@H](C)C(=O)N[C@@H](CC(N)=O)C(=O)N2CCC[C@H]2C(=O)N[C@H]2CNCc3ccc(cn3)B(O)OC(=O)Cn3cc(c4ccccc43)C[C@H](NC(=O)[C@H](CCN)NC(=O)[C@H](Cc3c[nH]c4ccccc34)NC(=O)[C@@H]3C[C@@H](O)CN3C(=O)[C@H](CC(C)C)NC2=O)C(=O)N1C [Example 1010] ({CH2CO}-Y[NMeA]NP[X2]L[Hyp]W[Dab][Trp(1-CH2CO)][NMeNle][NMeNle]LCG-NH2; ester 5-10; thioether N-14) | 8.6 | 
9 | CCCC[C@H]1C(=O)N(C)[C@@H](CCCC)C(=O)N[C@@H](CC(C)C)C(=O)N[C@H](C(=O)NCC(N)=O)CSCC(=O)N[C@H]2Cc3ccc(cc3)OB(O)c3ccc(C)cc3CNCC[C@@H]3NC(=O)[C@H](Cc4c[nH]c5ccccc45)NC(=O)[C@@H]4C[C@@H](O)CN4C(=O)[C@H](CC(C)C)NC(=O)[C@H](CNCc4cc(C)ccc4B(O)OC(=O)Cn4cc(c5ccccc54)C[C@H](NC3=O)C(=O)N1C)NC(=O)[C@@H]1CCCN1C(=O)[C@H](CC(N)=O)NC(=O)[C@H](C)N(C)C2=O [Example 1021] | 5.3 | 
10 | CCCC[C@H]1C(=O)N(C)[C@@H](CCCC)C(=O)N[C@@H](CC(C)C)C(=O)N[C@H](C(=O)NCC(N)=O)CSCC(=O)N[C@@H](Cc2ccc(O)cc2)C(=O)N(C)[C@@H](C)C(=O)N[C@@H](CC(N)=O)C(=O)N2CCC[C@H]2C(=O)N[C@@H](CN2Cc3ccc(cc3)B3O[C@@H]([C@H](O)[C@@H](C(O)CO)O3)[C@H](O)C2)C(=O)N[C@@H](CC(C)C)C(=O)N2C[C@H](O)C[C@H]2C(=O)N[C@@H](Cc2c[nH]c3ccccc23)C(=O)N[C@@H](CCNC[C@@H](O)[C@@H](O)[C@H](O)[C@H](O)C(O)CO)C(=O)N[C@@H](Cc2cn(CC(=O)O)c3ccccc23)C(=O)N1C (stereo partly drawn) [Example 1039] ({CH2CO}-Y[NMeA]NP[X23]L[Hyp]W[X13][Trp(1-CH2COOH)][NMeNle][NMeNle]LCG-NH2; thioether N-14) |  | 4.4
11 | CCCC[C@H]1C(=O)N(C)[C@@H](CCCC)C(=O)N[C@@H](CC(C)C)C(=O)N[C@H](C(=O)NCC(N)=O)CSCC(=O)N[C@@H](Cc2ccc(O)cc2)C(=O)N(C)[C@@H](C)C(=O)N[C@@H](CC(N)=O)C(=O)N2CCC[C@H]2C(=O)N[C@@H](CNCc2ccc(OC)c(B(O)O)c2)C(=O)N[C@@H](CC(C)C)C(=O)N2C[C@H](O)C[C@H]2C(=O)N[C@@H](Cc2c[nH]c3ccccc23)C(=O)N[C@@H](CCN)C(=O)N[C@@H](Cc2cn(CC(=O)O)c3ccccc23)C(=O)N1C [Example 1023] ({CH2CO}-Y[NMeA]NP[X10]L[Hyp]W[Dab][Trp(1-CH2COOH)][NMeNle][NMeNle]LCG-NH2; thioether N-14) | 9.7 | 
12 | CCCC[C@H]1C(=O)N(C)[C@@H](CCCC)C(=O)N[C@@H](CC(C)C)C(=O)N[C@H](C(=O)NCC(N)=O)CSCC(=O)N[C@@H](Cc2ccc(O)cc2)C(=O)N(C)[C@@H](C)C(=O)N[C@@H](CC(N)=O)C(=O)N2CCC[C@H]2C(=O)N[C@H]2CNCc3cccc(c3F)B(O)OC(=O)Cn3cc(c4ccccc43)C[C@H](NC(=O)[C@H](CCN)NC(=O)[C@H](Cc3c[nH]c4ccccc34)NC(=O)[C@@H]3C[C@@H](O)CN3C(=O)[C@H](CC(C)C)NC2=O)C(=O)N1C [Example 1015] ({CH2CO}-Y[NMeA]NP[X19]L[Hyp]W[Dab][Trp(1-CH2CO)][NMeNle][NMeNle]LCG-NH2; ester 5-10; thioether N-14) | 6.7 | 
